Paper PMC3177607 (Bioorganic & medicinal chemistry letters, 2008)
pEC50: −log10 of the molar value. Like-named read-outs stand apart in the source and are kept apart here.

What was measured:
M2 = biological target: T1, M2 (Homo sapiens, UniProt P08172); assay: M2 functional activation; assay type: cell-based
T1 sequence (P08172 1-466): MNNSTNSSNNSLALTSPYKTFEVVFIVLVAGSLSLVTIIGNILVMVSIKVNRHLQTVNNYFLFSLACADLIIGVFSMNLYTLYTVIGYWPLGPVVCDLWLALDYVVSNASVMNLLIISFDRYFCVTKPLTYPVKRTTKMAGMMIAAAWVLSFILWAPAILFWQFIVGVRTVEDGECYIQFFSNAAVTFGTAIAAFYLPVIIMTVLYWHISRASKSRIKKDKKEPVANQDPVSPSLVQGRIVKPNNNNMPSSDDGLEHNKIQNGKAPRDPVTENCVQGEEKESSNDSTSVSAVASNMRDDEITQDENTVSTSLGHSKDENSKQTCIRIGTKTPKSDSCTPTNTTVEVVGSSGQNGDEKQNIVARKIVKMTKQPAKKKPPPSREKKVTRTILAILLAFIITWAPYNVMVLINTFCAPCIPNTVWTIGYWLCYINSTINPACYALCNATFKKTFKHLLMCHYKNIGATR

M3 = M3 (Homo sapiens, UniProt P20309); assay: M3 functional activation; assay type: cell-based
Chain of M3 (P20309 whole entry): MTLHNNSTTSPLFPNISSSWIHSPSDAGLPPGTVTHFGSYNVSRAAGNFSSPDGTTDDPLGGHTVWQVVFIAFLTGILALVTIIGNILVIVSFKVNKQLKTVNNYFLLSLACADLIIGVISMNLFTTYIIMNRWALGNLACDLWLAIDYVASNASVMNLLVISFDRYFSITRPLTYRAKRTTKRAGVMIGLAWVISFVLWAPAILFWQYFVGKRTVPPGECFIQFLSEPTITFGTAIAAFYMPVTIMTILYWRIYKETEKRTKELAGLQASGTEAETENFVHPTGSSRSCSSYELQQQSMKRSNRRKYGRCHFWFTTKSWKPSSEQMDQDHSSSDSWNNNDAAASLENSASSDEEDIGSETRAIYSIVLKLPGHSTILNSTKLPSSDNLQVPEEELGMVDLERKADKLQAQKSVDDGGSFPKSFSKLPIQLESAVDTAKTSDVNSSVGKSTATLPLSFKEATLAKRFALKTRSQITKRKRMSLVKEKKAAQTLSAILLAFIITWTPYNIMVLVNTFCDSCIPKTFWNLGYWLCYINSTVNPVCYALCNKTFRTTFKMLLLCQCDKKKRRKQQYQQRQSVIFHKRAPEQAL

M4 = biological target: T2, M4 (Homo sapiens, UniProt P08173); assay: M4 functional activation; assay type: cell-based
T2 sequence (P08173 1-479): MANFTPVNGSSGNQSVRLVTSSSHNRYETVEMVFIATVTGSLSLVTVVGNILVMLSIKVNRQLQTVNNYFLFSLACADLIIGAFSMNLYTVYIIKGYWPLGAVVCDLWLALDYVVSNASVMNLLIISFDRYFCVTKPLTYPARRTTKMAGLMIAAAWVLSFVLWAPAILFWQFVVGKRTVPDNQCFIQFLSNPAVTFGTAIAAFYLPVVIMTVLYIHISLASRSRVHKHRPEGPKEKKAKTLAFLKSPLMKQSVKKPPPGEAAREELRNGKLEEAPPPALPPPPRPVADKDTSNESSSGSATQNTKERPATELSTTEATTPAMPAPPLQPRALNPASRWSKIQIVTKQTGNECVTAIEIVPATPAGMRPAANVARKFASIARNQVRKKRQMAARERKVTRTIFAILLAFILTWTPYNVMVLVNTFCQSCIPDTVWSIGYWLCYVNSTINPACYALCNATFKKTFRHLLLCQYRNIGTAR

M5 = biological target: T3, M5 (Homo sapiens, UniProt P08912); assay: M5 functional activation; assay type: cell-based
T3 sequence (P08912 1-532): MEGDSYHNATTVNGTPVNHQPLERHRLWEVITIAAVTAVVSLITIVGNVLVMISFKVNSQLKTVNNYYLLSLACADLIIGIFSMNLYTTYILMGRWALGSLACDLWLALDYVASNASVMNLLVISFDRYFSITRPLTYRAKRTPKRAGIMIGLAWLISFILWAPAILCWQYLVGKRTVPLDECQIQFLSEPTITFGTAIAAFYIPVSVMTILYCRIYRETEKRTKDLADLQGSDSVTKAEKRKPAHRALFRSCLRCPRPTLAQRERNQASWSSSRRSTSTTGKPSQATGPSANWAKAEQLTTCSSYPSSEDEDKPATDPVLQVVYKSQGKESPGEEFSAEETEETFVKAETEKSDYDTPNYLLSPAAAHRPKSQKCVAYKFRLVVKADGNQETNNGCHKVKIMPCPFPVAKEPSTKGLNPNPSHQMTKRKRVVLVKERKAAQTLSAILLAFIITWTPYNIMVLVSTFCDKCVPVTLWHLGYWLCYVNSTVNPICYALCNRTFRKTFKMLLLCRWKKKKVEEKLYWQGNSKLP

D2 [1] = biological target: T4, D2 (Homo sapiens, UniProt P14416); assay: D2 inhibition; assay type: cell-based
T4 sequence (P14416 whole entry): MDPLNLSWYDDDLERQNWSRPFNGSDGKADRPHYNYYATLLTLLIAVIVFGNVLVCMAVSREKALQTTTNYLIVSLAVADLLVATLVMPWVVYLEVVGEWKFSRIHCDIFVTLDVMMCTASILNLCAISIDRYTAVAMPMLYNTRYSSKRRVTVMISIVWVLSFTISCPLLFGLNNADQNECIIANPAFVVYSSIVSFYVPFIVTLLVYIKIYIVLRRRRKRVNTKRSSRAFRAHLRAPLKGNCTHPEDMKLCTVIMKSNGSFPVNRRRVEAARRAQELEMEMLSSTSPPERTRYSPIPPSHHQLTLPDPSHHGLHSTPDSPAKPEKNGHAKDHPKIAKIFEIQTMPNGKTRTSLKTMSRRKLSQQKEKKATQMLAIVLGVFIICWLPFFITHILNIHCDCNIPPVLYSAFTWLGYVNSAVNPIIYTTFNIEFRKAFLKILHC

M1 = biological target: T5, M1 (Rattus norvegicus, UniProt P08482); assay: 10 μM single point M1 activation screen; assay type: cell-based; conditions: in triplicate, relative to ACh, CCh and TBPB controls
T5 sequence (P08482 1-460): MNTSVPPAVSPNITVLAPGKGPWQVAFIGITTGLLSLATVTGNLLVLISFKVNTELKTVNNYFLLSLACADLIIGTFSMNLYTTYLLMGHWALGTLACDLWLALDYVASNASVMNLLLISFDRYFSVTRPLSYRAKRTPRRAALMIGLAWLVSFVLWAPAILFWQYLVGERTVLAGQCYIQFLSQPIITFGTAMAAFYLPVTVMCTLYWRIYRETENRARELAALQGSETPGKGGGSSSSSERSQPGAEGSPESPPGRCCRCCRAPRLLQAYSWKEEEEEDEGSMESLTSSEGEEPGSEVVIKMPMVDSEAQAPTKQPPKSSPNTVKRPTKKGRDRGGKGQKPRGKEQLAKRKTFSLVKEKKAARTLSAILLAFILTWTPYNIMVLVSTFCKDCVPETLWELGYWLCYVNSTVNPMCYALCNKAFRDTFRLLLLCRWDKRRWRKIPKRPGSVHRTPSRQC

D2 [2] = biological target: T4, D2; conditions: cited from earlier work

## O=c1[nH]c2ccccc2n1C1CCN(C2CCN(S(=O)(=O)c3ccccc3)CC2)CC1 [9c]
M2
  pEC50: < 4.52
M3
  pEC50: < 4.52
M4
  pEC50: < 4.52
M5
  pEC50: < 4.52
D2 [1]; read-out: inhibition of D2
  inhibition at 10 µM: ~10%
M1
  M1 activation, single point screen: activated M1

## O=C(Nc1cccc(SC(F)(F)F)c1)N1CCC(N2CCC(n3c(=O)[nH]c4ccccc43)CC2)CC1 [10i]
M1
  M1 activation, single point screen: activated M1

## O=c1[nH]c2ccc(F)cc2n1C1CCN(C2CCN(S(=O)(=O)c3ccccc3)CC2)CC1 [14c]
D2 [1]; at concentrations up to 10 μM
  inhibition of D2: did not inhibit

## O=c1[nH]c2ccccc2n1C1CCN(C2CCN(Cc3ccccc3C(F)(F)F)CC2)CC1 [compound 2]
D2 [2]
  D2 inhibitory activity: no D2 inhibitory activity

## CCOC(=O)N1CCC(N2CCC(n3c(=O)[nH]c4ccccc43)CC2)CC1 [ethyl carbamate congener]
M2
  % CCh Max at M2: 80.6%
M2; read-out: M2 EC50
  pEC50: 7.92
M4
  % CCh Max at M4: 96.9%
M4; read-out: M4 EC50
  pEC50: 8.04
M5
  % CCh Max at M5: 50.8%
M5; read-out: M5 EC50
  pEC50: 7.46
